Source: PMC11338861, “Assessment of the potential risk of oteseconazole and two other tetrazole antifungals to inhibit adrenal steroidogenesis and peripheral metabolism of corticosteroids” (Frontiers in Pharmacology, 2024)

Tests used:
CYP11A1 = target: T1, CYP11A1 (Homo sapiens, UniProt P05108); test: mitochondrial fraction of transfected V79-4 cells, pregnenolone ELISA; assay type: cell-based
T1 sequence (P05108 40-521): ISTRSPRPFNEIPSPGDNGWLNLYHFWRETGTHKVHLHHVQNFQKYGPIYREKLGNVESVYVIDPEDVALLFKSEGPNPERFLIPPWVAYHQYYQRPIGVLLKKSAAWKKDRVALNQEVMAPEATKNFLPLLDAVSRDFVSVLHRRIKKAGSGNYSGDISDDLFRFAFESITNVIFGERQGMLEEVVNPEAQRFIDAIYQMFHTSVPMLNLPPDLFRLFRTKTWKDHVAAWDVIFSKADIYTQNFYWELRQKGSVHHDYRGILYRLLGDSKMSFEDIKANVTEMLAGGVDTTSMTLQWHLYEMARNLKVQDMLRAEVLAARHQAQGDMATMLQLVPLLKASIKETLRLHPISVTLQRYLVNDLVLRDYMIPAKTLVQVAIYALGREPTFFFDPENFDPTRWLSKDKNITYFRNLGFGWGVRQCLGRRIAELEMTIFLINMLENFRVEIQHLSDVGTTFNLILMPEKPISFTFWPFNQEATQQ
T1 sequence (P10109 61-184 partner): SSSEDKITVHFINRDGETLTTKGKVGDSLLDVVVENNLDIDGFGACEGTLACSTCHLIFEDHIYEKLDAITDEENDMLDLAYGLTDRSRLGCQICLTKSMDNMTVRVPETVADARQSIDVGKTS

CYP11B1 = target: T2, CYP11B1 (Homo sapiens, UniProt P15538); test: mitochondrial fraction of V79-CYP11B1 cells, 11-DOC to corticosterone, UHPLC-MS/MS; assay type: cell-based
T2 sequence (P15538 25-503): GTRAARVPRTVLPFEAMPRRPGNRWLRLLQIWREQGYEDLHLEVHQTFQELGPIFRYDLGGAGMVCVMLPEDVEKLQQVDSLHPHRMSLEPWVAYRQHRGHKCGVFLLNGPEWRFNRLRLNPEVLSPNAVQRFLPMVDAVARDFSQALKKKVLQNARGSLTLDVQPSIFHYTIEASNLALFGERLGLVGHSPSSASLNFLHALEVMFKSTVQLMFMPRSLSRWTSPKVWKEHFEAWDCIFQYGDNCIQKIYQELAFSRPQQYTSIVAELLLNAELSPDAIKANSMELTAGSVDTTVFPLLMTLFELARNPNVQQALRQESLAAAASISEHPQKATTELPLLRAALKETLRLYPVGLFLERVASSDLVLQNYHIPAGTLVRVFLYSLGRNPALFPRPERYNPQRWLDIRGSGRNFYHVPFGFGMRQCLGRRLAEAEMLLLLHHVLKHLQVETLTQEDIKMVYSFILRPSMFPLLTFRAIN

CYP17A1 = target: T3, CYP17A1 (Homo sapiens, UniProt P05093); test: […]α-hydroxylase activity, microsomes of transfected COS-1 cells, radiolabeled progesterone, TLC ([…],20-lyase IC50 […]); assay type: biochemical
T3 sequence (P05093 1-508): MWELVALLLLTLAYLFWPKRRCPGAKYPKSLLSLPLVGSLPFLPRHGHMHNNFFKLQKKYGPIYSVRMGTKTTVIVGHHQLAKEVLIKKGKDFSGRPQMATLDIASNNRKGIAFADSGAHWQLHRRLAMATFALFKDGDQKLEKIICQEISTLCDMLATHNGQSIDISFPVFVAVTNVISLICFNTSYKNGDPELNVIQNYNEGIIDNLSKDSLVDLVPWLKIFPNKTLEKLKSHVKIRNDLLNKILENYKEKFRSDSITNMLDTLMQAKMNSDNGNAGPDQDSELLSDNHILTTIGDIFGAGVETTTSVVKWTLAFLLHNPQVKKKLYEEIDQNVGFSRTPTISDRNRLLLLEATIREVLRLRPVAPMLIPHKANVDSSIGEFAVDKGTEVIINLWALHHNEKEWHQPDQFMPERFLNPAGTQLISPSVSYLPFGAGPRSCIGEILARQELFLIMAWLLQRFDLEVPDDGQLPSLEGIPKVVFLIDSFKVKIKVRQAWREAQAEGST
T3 sequence (P16435 2-677 partner): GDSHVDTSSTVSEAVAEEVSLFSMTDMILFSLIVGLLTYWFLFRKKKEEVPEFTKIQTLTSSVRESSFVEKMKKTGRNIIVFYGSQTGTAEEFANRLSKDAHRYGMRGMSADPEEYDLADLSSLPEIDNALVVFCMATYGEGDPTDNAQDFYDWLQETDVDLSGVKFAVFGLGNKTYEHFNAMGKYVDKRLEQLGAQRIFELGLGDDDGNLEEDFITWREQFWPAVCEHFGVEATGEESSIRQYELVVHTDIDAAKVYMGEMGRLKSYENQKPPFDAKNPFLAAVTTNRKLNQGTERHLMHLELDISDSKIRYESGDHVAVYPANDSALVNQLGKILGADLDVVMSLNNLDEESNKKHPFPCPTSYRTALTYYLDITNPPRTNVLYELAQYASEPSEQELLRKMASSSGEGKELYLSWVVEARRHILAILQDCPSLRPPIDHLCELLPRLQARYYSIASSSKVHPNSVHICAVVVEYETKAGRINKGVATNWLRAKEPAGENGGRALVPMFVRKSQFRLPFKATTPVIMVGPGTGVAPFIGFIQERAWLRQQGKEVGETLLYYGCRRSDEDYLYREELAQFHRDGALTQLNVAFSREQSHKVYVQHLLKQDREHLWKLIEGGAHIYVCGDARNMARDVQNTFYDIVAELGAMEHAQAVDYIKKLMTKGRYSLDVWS

CYP21A2 = target: T4, CYP21A2 (Homo sapiens, UniProt P08686); test: cell-free activity assay, microsomes of transfected COS-1 cells, progesterone to 11-DOC; assay type: biochemical
T4 sequence (P08686 1-495): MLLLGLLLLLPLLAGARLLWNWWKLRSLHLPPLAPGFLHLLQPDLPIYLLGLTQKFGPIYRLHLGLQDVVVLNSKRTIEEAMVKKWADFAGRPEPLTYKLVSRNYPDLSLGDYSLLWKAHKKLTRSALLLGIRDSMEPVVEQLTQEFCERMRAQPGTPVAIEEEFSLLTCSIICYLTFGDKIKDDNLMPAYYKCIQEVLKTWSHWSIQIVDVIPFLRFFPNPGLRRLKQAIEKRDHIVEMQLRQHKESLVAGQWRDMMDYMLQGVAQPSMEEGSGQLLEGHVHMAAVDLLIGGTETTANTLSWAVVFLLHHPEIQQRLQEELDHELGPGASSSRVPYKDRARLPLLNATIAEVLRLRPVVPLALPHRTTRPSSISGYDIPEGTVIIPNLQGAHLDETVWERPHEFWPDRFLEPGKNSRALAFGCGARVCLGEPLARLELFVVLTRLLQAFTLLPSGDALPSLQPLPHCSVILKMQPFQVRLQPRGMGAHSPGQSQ
T4 sequence (P16435 2-677 partner): T3 sequence (P16435 2-677 partner)

inhibition at 10 µM (CYP11A1) [%]	IC50 (CYP17A1) [µM]	IC50 (CYP21A2) [µM]	Compound	mitochondrial fraction of V79-CYP11B1 cells, 11-DOC to corticosterone, UHPLC-MS/ (CYP11B1)
~35	13.2 ± 3.9	13.8 ± 1.9	O[C@@](Cn1cnnn1)(c1ccc(F)cc1F)C(F)(F)c1ccc(-c2ccc(OCC(F)(F)F)cc2)cn1 [oteseconazole]	–
~45	–	–	O[C@@](Cn1cnnn1)(c1ccc(F)cc1F)C(F)(F)c1ccc(-c2ccc(OC(F)(F)F)cc2)cn1 [quilseconazole]	–

Compound	inhibition at 10 µM (CYP11A1) [%]	IC50 (CYP17A1) [µM]	IC50 (CYP21A2) [µM]	mitochondrial fraction of V79-CYP11B1 cells, 11-DOC to corticosterone, UHPLC-MS/ (CYP11B1)
CC(=O)N1CCN(c2ccc(OC[C@H]3CO[C@](Cn4ccnc4)(c4ccc(Cl)cc4Cl)O3)cc2)CC1 (racemic) [ketoconazole, reference compound]	~55	–	–	measuring the conversion of 11-DOC to corticosterone, with ketoconazole serving as positive control
